This note sets out measurements from PubChem BioAssay (NCI).

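Interpolation was linear, between the two tested concentrations surrounding the appropriate level; five concentrations were tested over 48 hours in 96-well plates. The concentration for full growth arrest is given as TGI.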

The first assay deals with CAKI-1 renal. As to the kind of experiment: growth of human tumour cells (NCI), 48 h.
Consider `Cc1cc(OCc2nnc3n2N=C(c2cc(F)c(Cl)cc2Cl)/C(=C/c2ccc(Cl)cc2)S3)ccc1Cl`, for which the TGI stood at 49.9 µM.

The test system of a further assay is UACC-257 melanoma. As to the kind of experiment: growth of human tumour cells (NCI), 48 h.
`COc1ccc(CN(Cc2ccc(OC)cc2)C(=O)CC2(O)C=CCC2)cc1` (stereo not given) yielded a TGI greater than 100 µM.

`COc1ccc(OC)c(C2Cc3cnc4nc(N)nc(N)c4c3C2)c1` (stereo not given): the TGI came to 40.1 µM.

Consider `CC(C)(C)c1cc(C(=O)/C=C/C=C/c2ccccc2)cc(C(C)(C)C)c1O`, for which the TGI was found to be 25.4 µM.

`N#C/C(N)=C(\C#N)NC=NCc1ccccc1` came in with a TGI greater than 100 µM.

Molecule `O=[N+]([O-])c1ccc(S(=O)(=O)N=Ic2ccccc2)cc1` registered a TGI greater than 100 µM.

In the case of `O=C(O)CCN(CCC(=O)O)c1ccc(/C=C2\SC(=S)NC2=O)cc1`, the TGI is greater than 100 µM.

As for `O=C1C[C@H]2[C@@H](O1)[C@@H](O)CN1C(=O)c3ccccc3[C@H]21`, the TGI was greater than 100 µM.

The molecule `CCO/C=N/NC(=O)CSc1nc2ccc(I)cc2c(=O)n1Cc1ccccc1` came in with a TGI greater than 100 µM.

In the case of `COc1ccc(OC)c(N2C(=O)CSC2c2cc(OC)c(OC)c(OC)c2)c1` (stereo not given), the TGI was greater than 100 µM.

The molecule `CCOC(=O)c1ccc(C(=O)/C(C#N)=C2\CCCN2C)[nH]1` had a TGI greater than 100 µM.

Molecule `S=c1[nH]n2c(COc3cccc(OCc4nnc5sc(=S)[nH]n45)c3)nnc2s1` yielded a TGI greater than 100 µM.

`CCOC(=O)C1=C(N)Oc2ccc(Br)cc2C1C(C#N)C(=O)OCC` (stereo not given): the TGI was found to be 61.7 µM.

For `O=C(CCc1cc(O)cc(O)c1)NCCc1cc(O)cc(O)c1`, the TGI was greater than 100 µM.

In the case of `Cc1cc(OCc2nnc3n2N=C(c2cc(F)c(Cl)cc2Cl)/C(=C/c2ccc(Cl)cc2)S3)ccc1Cl`, the TGI was greater than 100 µM.

The next assay concerns A498 renal. As to the kind of experiment: growth of human tumour cells (NCI), 48 h.
For `COc1ccc(CN(Cc2ccc(OC)cc2)C(=O)CC2(O)C=CCC2)cc1` (stereo not given), the TGI was greater than 100 µM.

As to `COc1ccc(OC)c(C2Cc3cnc4nc(N)nc(N)c4c3C2)c1` (stereo not given), the TGI stood at 33 µM.

With `CC(C)(C)c1cc(C(=O)/C=C/C=C/c2ccccc2)cc(C(C)(C)C)c1O`, the TGI was greater than 80.7 µM.

For `N#C/C(N)=C(\C#N)NC=NCc1ccccc1`, the TGI is greater than 100 µM.

On to `O=[N+]([O-])c1ccc(S(=O)(=O)N=Ic2ccccc2)cc1`, for which the TGI was greater than 100 µM.

`O=C(O)CCN(CCC(=O)O)c1ccc(/C=C2\SC(=S)NC2=O)cc1` showed a TGI greater than 100 µM.

Molecule `O=C1C[C@H]2[C@@H](O1)[C@@H](O)CN1C(=O)c3ccccc3[C@H]21` displayed a TGI greater than 100 µM.

Take `CCO/C=N/NC(=O)CSc1nc2ccc(I)cc2c(=O)n1Cc1ccccc1`: the TGI is greater than 100 µM.

Molecule `COc1ccc(OC)c(N2C(=O)CSC2c2cc(OC)c(OC)c(OC)c2)c1` (stereo not given) gave a TGI greater than 100 µM.

On to `CCOC(=O)c1ccc(C(=O)/C(C#N)=C2\CCCN2C)[nH]1`, for which the TGI is greater than 100 µM.

As for `S=c1[nH]n2c(COc3cccc(OCc4nnc5sc(=S)[nH]n45)c3)nnc2s1`, the TGI was greater than 100 µM.

In the case of `CCOC(=O)C1=C(N)Oc2ccc(Br)cc2C1C(C#N)C(=O)OCC` (stereo not given), the TGI is greater than 100 µM.

With `O=C(CCc1cc(O)cc(O)c1)NCCc1cc(O)cc(O)c1`, the TGI was greater than 100 µM.

With `Cc1cc(OCc2nnc3n2N=C(c2cc(F)c(Cl)cc2Cl)/C(=C/c2ccc(Cl)cc2)S3)ccc1Cl`, the TGI was 45.9 µM.

For another assay, the system named is CCRF-CEM leukemia. Briefly: growth of human tumour cells (NCI), 48 h.
As to `COc1ccc(CN(Cc2ccc(OC)cc2)C(=O)CC2(O)C=CCC2)cc1` (stereo not given), the TGI is greater than 100 µM.

In turn, `COc1ccc(OC)c(C2Cc3cnc4nc(N)nc(N)c4c3C2)c1` (stereo not given) yielded a TGI greater than 100 µM.

On to `CC(C)(C)c1cc(C(=O)/C=C/C=C/c2ccccc2)cc(C(C)(C)C)c1O`, for which the TGI stood at 15.5 µM.

`N#C/C(N)=C(\C#N)NC=NCc1ccccc1` gave a TGI greater than 100 µM.

Molecule `O=[N+]([O-])c1ccc(S(=O)(=O)N=Ic2ccccc2)cc1` registered a TGI greater than 100 µM.

On to `O=C(O)CCN(CCC(=O)O)c1ccc(/C=C2\SC(=S)NC2=O)cc1`, for which the TGI was greater than 100 µM.

As for `O=C1C[C@H]2[C@@H](O1)[C@@H](O)CN1C(=O)c3ccccc3[C@H]21`, the TGI was greater than 100 µM.

`CCO/C=N/NC(=O)CSc1nc2ccc(I)cc2c(=O)n1Cc1ccccc1` yielded a TGI greater than 100 µM.

On to `COc1ccc(OC)c(N2C(=O)CSC2c2cc(OC)c(OC)c(OC)c2)c1` (stereo not given), for which the TGI is greater than 100 µM.

With `CCOC(=O)c1ccc(C(=O)/C(C#N)=C2\CCCN2C)[nH]1`, the TGI was greater than 100 µM.

Take `S=c1[nH]n2c(COc3cccc(OCc4nnc5sc(=S)[nH]n45)c3)nnc2s1`: the TGI was greater than 100 µM.

In the case of `CCOC(=O)C1=C(N)Oc2ccc(Br)cc2C1C(C#N)C(=O)OCC` (stereo not given), the TGI amounted to 44.5 µM.

Regarding `Cc1cc(OCc2nnc3n2N=C(c2cc(F)c(Cl)cc2Cl)/C(=C/c2ccc(Cl)cc2)S3)ccc1Cl`, the TGI is greater than 100 µM.

A further assay has as its system EKVX NSCLC. As to the kind of experiment: growth of human tumour cells (NCI), 48 h.
Molecule `COc1ccc(CN(Cc2ccc(OC)cc2)C(=O)CC2(O)C=CCC2)cc1` (stereo not given) yielded a TGI greater than 100 µM.

As for `COc1ccc(OC)c(C2Cc3cnc4nc(N)nc(N)c4c3C2)c1` (stereo not given), the TGI is greater than 100 µM.

`CC(C)(C)c1cc(C(=O)/C=C/C=C/c2ccccc2)cc(C(C)(C)C)c1O` came in with a TGI greater than 100 µM.

`N#C/C(N)=C(\C#N)NC=NCc1ccccc1` returned a TGI greater than 100 µM.

Consider `O=[N+]([O-])c1ccc(S(=O)(=O)N=Ic2ccccc2)cc1`, for which the TGI is greater than 100 µM.

Turning to `O=C(O)CCN(CCC(=O)O)c1ccc(/C=C2\SC(=S)NC2=O)cc1`, the TGI was greater than 100 µM.

In turn, `O=C1C[C@H]2[C@@H](O1)[C@@H](O)CN1C(=O)c3ccccc3[C@H]21` gave a TGI greater than 100 µM.

Take `CCO/C=N/NC(=O)CSc1nc2ccc(I)cc2c(=O)n1Cc1ccccc1`: the TGI was greater than 100 µM.

Molecule `COc1ccc(OC)c(N2C(=O)CSC2c2cc(OC)c(OC)c(OC)c2)c1` (stereo not given) returned a TGI greater than 100 µM.

As for `CCOC(=O)c1ccc(C(=O)/C(C#N)=C2\CCCN2C)[nH]1`, the TGI is greater than 100 µM.

`S=c1[nH]n2c(COc3cccc(OCc4nnc5sc(=S)[nH]n45)c3)nnc2s1` returned a TGI greater than 100 µM.

As for `CCOC(=O)C1=C(N)Oc2ccc(Br)cc2C1C(C#N)C(=O)OCC` (stereo not given), the TGI was greater than 100 µM.

`O=C(CCc1cc(O)cc(O)c1)NCCc1cc(O)cc(O)c1` displayed a TGI greater than 100 µM.

The molecule `Cc1cc(OCc2nnc3n2N=C(c2cc(F)c(Cl)cc2Cl)/C(=C/c2ccc(Cl)cc2)S3)ccc1Cl` displayed a TGI greater than 100 µM.

The test system of a further assay is OVCAR-8 ovarian. As to the kind of experiment: growth of human tumour cells (NCI), 48 h.
On to `COc1ccc(CN(Cc2ccc(OC)cc2)C(=O)CC2(O)C=CCC2)cc1` (stereo not given), for which the TGI is greater than 100 µM.

In the case of `COc1ccc(OC)c(C2Cc3cnc4nc(N)nc(N)c4c3C2)c1` (stereo not given), the TGI stood at 96.9 µM.

`CC(C)(C)c1cc(C(=O)/C=C/C=C/c2ccccc2)cc(C(C)(C)C)c1O`: the TGI stood at 58.5 µM.

Molecule `N#C/C(N)=C(\C#N)NC=NCc1ccccc1` returned a TGI greater than 100 µM.

In the case of `O=[N+]([O-])c1ccc(S(=O)(=O)N=Ic2ccccc2)cc1`, the TGI was greater than 100 µM.

Molecule `O=C(O)CCN(CCC(=O)O)c1ccc(/C=C2\SC(=S)NC2=O)cc1` came in with a TGI greater than 100 µM.

In the case of `O=C1C[C@H]2[C@@H](O1)[C@@H](O)CN1C(=O)c3ccccc3[C@H]21`, the TGI was greater than 100 µM.

`CCO/C=N/NC(=O)CSc1nc2ccc(I)cc2c(=O)n1Cc1ccccc1` displayed a TGI greater than 100 µM.

As for `COc1ccc(OC)c(N2C(=O)CSC2c2cc(OC)c(OC)c(OC)c2)c1` (stereo not given), the TGI is greater than 100 µM.

The molecule `CCOC(=O)c1ccc(C(=O)/C(C#N)=C2\CCCN2C)[nH]1` returned a TGI greater than 100 µM.

The molecule `S=c1[nH]n2c(COc3cccc(OCc4nnc5sc(=S)[nH]n45)c3)nnc2s1` displayed a TGI greater than 100 µM.

On to `CCOC(=O)C1=C(N)Oc2ccc(Br)cc2C1C(C#N)C(=O)OCC` (stereo not given), for which the TGI amounted to 45.1 µM.

With `O=C(CCc1cc(O)cc(O)c1)NCCc1cc(O)cc(O)c1`, the TGI was greater than 100 µM.

Turning to `Cc1cc(OCc2nnc3n2N=C(c2cc(F)c(Cl)cc2Cl)/C(=C/c2ccc(Cl)cc2)S3)ccc1Cl`, the TGI came out at 39.7 µM.
